Structures are written as SMILES. Like-named read-outs stand apart in the source and are kept apart here.

Data set [1] in a line: Octanol-water partition coefficient (logPoct) by fluorometry. The format is physicochemical. As to conditions: n-octanol/distilled water, 100 μM, room temperature, mean ± S.E.M, three independent experiments. How it is done: Octanol-water partition coefficients (logPoct) were determined as described previously with modification. […] The samples were incubated at room temperature with a brief vortex every 5 min for 60 minutes. After centrifugation at 2,000 g for 10 min, octanol and water layers were separately transferred to microcentrifuge tubes. Concentrations were determined by fluorometry at an excitation wave length of 530/25 nm and an emission wave length of 590/30 nm using an ELISA reader (Biotek, Winooski, VT).

Data set [2] deals with CAA deposits (cerebrovascular Aβ aggregates) (Homo sapiens, UniProt P05067). Put plainly: In situ saturation binding assay in fixed Tg2576 brain sections, fluorescence on CAA. Details: species or system Tg2576 mice. As to conditions: 16 month-old Tg2576 fixed brain sections, intrinsic fluorescence, 30 min room temperature; read-out: Amyloid binding affinity (KD) on CAA (converted). Here is the method:
(§1) Figure 5 In situ binding assay in Tg2576 brain sections. Sixteen month-old Tg2576 mice were perfused with PBS and brains were post-fixed in 4% paraformaldehyde. Coronal brain sections (40 μm thick) were washed three times with PBS and incubated with various concentrations of test compounds (4 sections/concentration; 6 concentrations/compound) at room temperature for 30 min. Brain sections were washed twice with PBS and 50% ethanol in PBS then cover-slipped. […] Scale bar: 100 μm. Fluorescent images of the sensorimotor cortex were taken and the fluorescent intensity on CAA (B) and neuritic plaques (C) was quantified. Saturation binding curves were plotted to obtain the binding affinity (KD) values (see Table 2).

The target of another data set is T1, neuritic plaques (Homo sapiens, UniProt P05067).
T1 construct: Aβ1-42 (the predominant species in neuritic plaques); from tissue; host or cells: brain of 16-month-old Tg2576 transgenic mice
T1 sequence (P05067 672-713 limits assumed): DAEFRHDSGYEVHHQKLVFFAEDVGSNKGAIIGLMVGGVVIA
In words: In situ saturation binding assay in fixed Tg2576 brain sections, fluorescence on neuritic plaques. Further details: species or system Tg2576 mice. As to conditions: 16 month-old Tg2576 fixed brain sections, intrinsic fluorescence, 30 min room temperature; read-out: Amyloid binding affinity (KD) on neuritic plaques. How it is done: as §1

Data set [3] has as its system cerebrovascular Aβ deposits and neuritic plaques. Put plainly: Fluorescent staining of fixed aged Tg2576 brain sections. The format is binding. Conditions: fixed brain sections of aged Tg2576 mice; 1 μM resorufin, 2 μM methoxy-X34. How it is done: Scale bars in A-D: 100 μm.
Tg2576 and littermate wild-type mice at 12-16 months of age were anesthetized with isoflurane and transcardially perfused with PBS. Brains were removed, post-fixed overnight in 4% paraformaldehyde in 0.1 M phosphate buffer (pH 7.4) at 4°C, and preserved in 30% sucrose in 0.1 M phosphate buffer at 4°C. Brains were sectioned coronally (40 μm) on a freezing sliding microtome as described previously. […] Brain sections were washed three times with PBS and once with 50% ethanol in PBS for 5 min each. After three more PBS washes, brain sections were mounted on a slide glass and cover-slipped with Vectashield mounting media (Vector laboratories, Burlingame, CA). Fluorescent staining was visualized using a Nikon Eclipse ME600 digital video microscopy system (Nikon Instruments Inc., Melville, NY) and MetaMorph imaging software (Molecular Devices, Sunnyvale, CA). Cross-sectional area covered by CAA vessels and parenchymal plaques were quantified using ImageJ software (National Institutes of Health, Bethesda, MD) as previously described.

Details of data set [4]: method as in Klunk et. al. [51]. Conditions: ref Klunk et. al. [51]; cited from earlier work.
Data set [5] concerns 3D6-positive cerebral arterioles and neuritic plaques. Put plainly: Fluorescent staining of paraffin-embedded human AD brain sections (3D6 co-labeling). The format is binding. Conditions: human AD cortical sections, 1 μM resorufin.
In data set [6] the test system is CAA amyloid deposits and neuritic plaques. In words: In vivo live imaging through closed cranial window in aged Tg2576 mice. Conditions: 6 mg/kg i.p. per legend and methods.

Sequence of CAA deposits (cerebrovascular Aβ aggregates) (P05067 672-711 limits assumed): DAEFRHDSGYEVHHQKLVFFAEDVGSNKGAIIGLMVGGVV

The term Kd denotes the constant that tells how readily two partners part at equilibrium. Take `O=c1ccc2nc3ccc(OCc4ccccc4)cc3oc-2c1` [Benzyloxyresorufin, benzyloxy-resorufin]: the logPoct in data set [1] was determined as 2.206 ± 0.104; in data set [1] (listed as benzyloxy-resorufin), 2.21. Also, the Kd in data set [2] is 473 ± 82 nM; on neuritic plaques it was more than 10000 nM. Besides, the “Binding to CAA-laden vessels versus neuritic plaques (fluorescent staining)” value in data set [3] is on record as “preferentially bound CAA-laden vessels but not neuritic plaques”.

One may read the logP as the decadic logarithm of the partition coefficient of the neutral form, usually between octanol and water. In data set [1], `CCOc1ccc2nc3ccc(=O)cc-3oc2c1` [Ethoxyresorufin, ethoxy-resorufin] returned a log partition coefficient (logP) of 1.94 ± 0.137 and a logPoct of 1.94. In addition, in data set [2], the Kd was 247 ± 135 nM. Moreover, the Kd at neuritic plaques is more than 10000 nM. Also, the “Binding to CAA-laden vessels versus neuritic plaques (fluorescent staining)” value in data set [3] is on record as “preferentially bound CAA-laden vessels but not neuritic plaques”.

For the molecule `COc1cc(C=Cc2ccc(O)c(C(=O)O)c2)ccc1C=Cc1ccc(O)c(C(=O)O)c1` [Methoxy-X34, reference compound], the dissociation constant (Kd) in data set [2] is 325 nM; at neuritic plaques it was 219 nM. Besides, in data set [3], the “Binding to CAA-laden vessels versus neuritic plaques (fluorescent staining)” value was “visualized both cerebrovascular Aβ deposits and neuritic plaques”. Moreover, the logPoct in data set [4] is reported as 0.19.

In data set [1], `O=c1ccc2nc3ccc(O)cc3oc-2c1` [Resorufin, 7-hydroxy-3H-phenoxazin-3-one] showed a lipophilicity (logP) of 0.427 ± 0.036 and a logPoct of 0.43. In addition, the “Binding to CAA-laden vessels versus neuritic plaques (fluorescent staining)” value in data set [3] is given as “strongly bind CAA-laden cerebral arterioles but not parenchymal neuritic plaques”. Further, the “Staining of 3D6-positive amyloid deposits” value in data set [5] is given as “marked resorufin-positive staining was noted in the 3D6-positive cerebral arterioles”. In addition, the “Visualization of CAA deposits after intravenous administration” value in the data set on CAA deposits (i.v. up to 50 mg/kg, aged Tg2576 mice (15 mo)) is listed as “failed to visualize CAA deposits”. Further, in the data set with CAA deposits (mouse, in vivo), the “Crossing of the BBB” value is recorded as “failed to cross the BBB”.

With `COc1cc(/C=C/c2ccc(O)cc2)ccc1/C=C/c1ccc(O)cc1` [methoxy-X04], in data set [6], the “Live fluorescent labeling of amyloid deposits by methoxy-X04” value was “labeled Aβ aggregates in both cerebral arteries and parenchymal neuritic plaques”.

These data come from article PMC3259047 (Molecular Neurodegeneration, 2011).
